We go through 30 compounds from patent US20220370453A1 (Storm Therapeutics Ltd, priority 2019, published 2022).

A word on the IC50: it is the concentration that gives 50% inhibition. A lower IC50 goes with higher potency.

One assay concerns the target T1, BCDIN3D (Homo sapiens, UniProt Q7Z5W3).
T1 sequence (Q7Z5W3 1-292): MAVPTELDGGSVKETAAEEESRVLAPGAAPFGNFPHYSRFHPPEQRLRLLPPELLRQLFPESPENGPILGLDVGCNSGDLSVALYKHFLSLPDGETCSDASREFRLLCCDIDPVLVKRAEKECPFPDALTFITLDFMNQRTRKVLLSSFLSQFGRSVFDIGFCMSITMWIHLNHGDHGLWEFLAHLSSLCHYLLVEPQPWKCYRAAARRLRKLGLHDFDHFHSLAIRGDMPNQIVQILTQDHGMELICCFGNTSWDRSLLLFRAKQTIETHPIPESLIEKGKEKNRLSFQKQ
Nature of the assay: BCDIN3D IC50 RFMS (RapidFire) assay with mini-helix. It is filed as biochemical. The following applies: mini-helix 0.2 μM and SAM 6 μM as substrates, 25 nM enzyme, 1 hr at 37° C. As to the method:
The following General Methods details the assay conditions for the Biological assays.
BCDIN3D IC50 RFMS Assay with Mini-Helix
The enzymatic assay was performed in a 384-well polypropylene plate in assay buffer with 25 mM Tris pH 8.0, 10 mM DTT, 1 mM EDTA, 0.03% BSA in a final assay volume of 20 μL. The enzyme with a final concentration of 25 nM was pre-incubated with the respective compound at 1% DMSO final assay concentration over 10 min at room temperature. The reaction was initiated by addition of 0.2 μM final assay concentration of mini-helix and 6 μM final concentration of SAM as substrates. After a 1 hr incubation at 37° C., the reaction was terminated with 40 μL of stop solution of 7.5% trichloroactetic acid in water containing 112.5 nM D4-SAH and 30 nM ^13C10-SAH used as internal standards. The SAH product concentrations as well as both internal standards were analyzed by a RapidFire High Throughput Mass Spectrometry System (Agilent Technologies, Santa Clara, Calif.) using an AP14000 triple quadrupole mass spectrometer (AB Sciex Framingham, Mass.).
Compound `[2H]C([2H])([2H])n1ncc2c(NC(C)(C)C)nc(NCC(N)c3ccccc3F)nc21` (stereo in doubt) [Compound 7.16, N6-[(2R)-2-amino-2-(2-fluorophenyl)ethyl]-N4-tert-butyl-1-(trideuteriomethyl)pyrazolo[3,4-d]pyrimidine-4,6-diamine] yielded an IC50 of 0.069 µM.

Regarding `Cn1ncc2c(Nc3cccc(C(F)(F)F)c3)nc(NCCN)nc21` [Compound 1.02, N6-(2-aminoethyl)-1-methyl-N4-[3-(trifluoromethyl)phenyl]-1H-pyrazolo[3,4-d]pyrimidine-4,6-diamine], the IC50 came to 4.27 µM.

For the compound `COc1ccc(CCNc2nc(NCCN)nc3c2cnn3C)cn1` [Compound 1.07, N6-(2-aminoethyl)-N4-[2-(6-methoxypyridin-3-yl)ethyl]-1-methyl-1H-pyrazolo[3,4-d]pyrimidine-4,6-diamine], the IC50 was 4.38 µM.

Compound `COc1ccc(CCNc2nc(NCCN)nc3c2cnn3C)cc1Cl` [Compound 1.08, N6-(2-aminoethyl)-N4-[2-(3-chloro-4-methoxyphenyl)ethyl]-1-methyl-1H-pyrazolo[3,4-d]pyrimidine-4,6-diamine] yielded an IC50 of 2.8 µM.

Take `Cn1ncc2c(NCCc3ccc4c(c3)OCO4)nc(NCCN)nc21` [Compound 1.09, N6-(2-aminoethyl)-N4-[2-(2H-1,3-benzodioxol-5-yl)ethyl]-1-methyl-1H-pyrazolo[3,4-d]pyrimidine-4,6-diamine]: half-maximal inhibition (IC50) required 4.07 µM.

Turning to `Cn1ncc2c(NCc3ccc4occc4c3)nc(NCCN)nc21` [Compound 1.10, N6-(2-aminoethyl)-N4-[(1-benzofuran-5-yl)methyl]-1-methyl-1H-pyrazolo[3,4-d]pyrimidine-4,6-diamine], the IC50 amounted to 5.49 µM.

`Cn1ncc2c(NCC3CCN(S(=O)(=O)c4ccccc4)CC3)nc(NCCN)nc21` [Compound 1.12, N6-(2-aminoethyl)-N4-{[1-(benzenesulfonyl)piperidin-4-yl]methyl}-1-methyl-1H-pyrazolo[3,4-d]pyrimidine-4,6-diamine] yielded an IC50 of 9.52 µM.

Take `Cn1ncc2c(NCc3ccc4nc[nH]c4c3)nc(NCCN)nc21` [Compound 1.13, N6-(2-aminoethyl)-N4-[(1H-1,3-benzodiazol-5-yl)methyl]-1-methyl-1H-pyrazolo[3,4-d]pyrimidine-4,6-diamine]: the IC50 worked out at 7.8 µM.

`Cn1ncc2c(NCc3ccc(F)c(Cl)c3)nc(NCCN)nc21` [Compound 1.17, N6-(2-aminoethyl)-N4-[(3-chloro-4-fluorophenyl)methyl]-1-methyl-1H-pyrazolo[3,4-d]pyrimidine-4,6-diamine]: the IC50 worked out at 6.9 µM.

Turning to `Cn1ncc2c(NCc3ccc(Cl)cc3F)nc(NCCN)nc21` [Compound 1.18, N6-(2-aminoethyl)-N4-[(4-chloro-2-fluorophenyl)methyl]-1-methyl-1H-pyrazolo[3,4-d]pyrimidine-4,6-diamine], the IC50 is 4.75 µM.

With `Cn1ncc2c(NCc3ccc(F)cc3F)nc(NCCN)nc21` [Compound 1.19, N6-(2-aminoethyl)-N4-[(2,4-difluorophenyl)methyl]-1-methyl-1H-pyrazolo[3,4-d]pyrimidine-4,6-diamine], it took 6.38 µM to reach half-maximal inhibition (IC50).

`COc1cc(Cl)cc(CNc2nc(NCCN)nc3c2cnn3C)c1` [Compound 1.20, N6-(2-aminoethyl)-N4-[(3-chloro-5-methoxyphenyl)methyl]-1-methyl-1H-pyrazolo[3,4-d]pyrimidine-4,6-diamine] showed an IC50 of 3.53 µM.

With `COc1ccc(CNc2nc(NCCN)nc3c2c(C)nn3C)cc1Cl` [Compound 1.29, N6-(2-aminoethyl)-N4-[(3-chloro-4-methoxyphenyl)methyl]-1,3-dimethyl-1H-pyrazolo[3,4-d]pyrimidine-4,6-diamine], the IC50 was determined as 2.9 µM.

In turn, `COc1ccc(C(=O)N2CCC(CNc3nc(NCCN)nc4c3cnn4C)CC2)cc1Cl` [Compound 1.37, N6-(2-aminoethyl)-N4-{[1-(3-chloro-4-methoxybenzoyl)piperidin-4-yl]methyl}-1-methyl-1H-pyrazolo[3,4-d]pyrimidine-4,6-diamine] gave an IC50 of 7.62 µM.

The compound `COc1ccc(CNc2nc(NCCN)nc3c2cnn3C)cc1` [Compound 1.39, N6-(2-aminoethyl)-N4-[(4-methoxyphenyl)methyl]-1-methyl-1H-pyrazolo[3,4-d]pyrimidine-4,6-diamine] displayed an IC50 of 6.91 µM.

In turn, `Cn1ncc2c(NCC3CCN(C(=O)OC(C)(C)C)CC3)nc(NCCN)nc21` [Compound 1.40, tert-butyl 4-[({6-[(2-aminoethyl)amino]-1-methyl-1H-pyrazolo[3,4-d]pyrimidin-4-yl}amino)methyl]piperidine-1-carboxylate] returned an IC50 of 6.19 µM.

As to `Cn1ncc2c(NCC3CCN(Cc4ccccc4)CC3)nc(NCCN)nc21` [Compound 1.41, N6-(2-aminoethyl)-N4-[(1-benzylpiperidin-4-yl)methyl]-1-methyl-1H-pyrazolo[3,4-d]pyrimidine-4,6-diamine], the IC50 is 21.1 µM.

For `Cn1ncc2c(NCC3CCN(C(=O)c4ccccc4)CC3)nc(NCCN)nc21` [Compound 1.42, N6-(2-aminoethyl)-N4-[(1-benzoylpiperidin-4-yl)methyl]-1-methyl-1H-pyrazolo[3,4-d]pyrimidine-4,6-diamine], the IC50 was 5.76 µM.

The compound `Cc1ccc(CNc2nc(N[C@@H]3CCCC[C@H]3N)nc3c2cnn3C)cc1Cl` [Compound 7.03, 6-N-[(1R,2R)-2-aminocyclohexyl]-4-N-[(3-chloro-4-methylphenyl)methyl]-1-methylpyrazolo[3,4-d]pyrimidine-4,6-diamine] showed an IC50 of 8.58 µM.

Regarding `Cn1ncc2c(NC(C)(C)C)nc(NC[C@H](N)c3ccc(F)c(F)c3)nc21` [Compound 7.20, N6-[(2R)-2-amino-2-(3,4-difluorophenyl)ethyl]-N4-tert-butyl-1-methyl-1H-pyrazolo[3,4-d]pyrimidine-4,6-diamine], 0.8 µM corresponded to half-maximal inhibition (IC50).

Take `Cn1ncc2c(NC(C)(C)C)nc(NC[C@@H](N)c3ccc(F)c(F)c3)nc21` [Compound 7.21, N6-[(2S)-2-amino-2-(3,4-difluorophenyl)ethyl]-N4-tert-butyl-1-methyl-1H-pyrazolo[3,4-d]pyrimidine-4,6-diamine]: inhibition was half-maximal at 0.00462 µM (IC50).

Turning to `Cn1ncc2c(NC(C)(C)C)nc(NC[C@H](N)C3CCCCC3)nc21` [Compound 7.22, N6-[(2R)-2-amino-2-cyclohexylethyl]-N4-tert-butyl-1-methyl-1H-pyrazolo[3,4-d]pyrimidine-4,6-diamine], the IC50 was 0.8 µM.

Still in this assay, the particulars now being: mini-helix substrate 0.2 μM, SAM 6 μM, 25 nM enzyme.
Compound `Cn1ncc2c(NC34CC(C3)C4)nc(NCC3(N)CC3)nc21` [Compound 2.38, 6-N-[(1-aminocyclopropyl)methyl]-4-N-(3-bicyclo[1.1.1]pentanyl)-1-methylpyrazolo[3,4-d]pyrimidine-4,6-diamine] showed an IC50 of 1.71 µM.

Compound `Cc1ccc(CNc2nc(NC(C)CN)nc3c2cnn3C)cc1Cl` (stereo not drawn) [Compound 3.02, 6-N-(1-aminopropan-2-yl)-4-N-[(3-chloro-4-methylphenyl)methyl]-1-methylpyrazolo[3,4-d]pyrimidine-4,6-diamine] had an IC50 of 6.56 µM.

In the case of `Cc1ccc(CNc2nc(NC[C@H](C)N)nc3c2cnn3C)cc1Cl` [Compound 3.03, 6-N-[(2S)-2-aminopropyl]-4-N-[(3-chloro-4-methylphenyl)methyl]-1-methylpyrazolo[3,4-d]pyrimidine-4,6-diamine], the midpoint of inhibition, the IC50, lay at 5.71 µM.

With `Cc1ccc(CNc2nc(NC[C@H]3CCCN3)nc3c2cnn3C)cc1Cl` [Compound 3.17, 4-N-[(3-chloro-4-methylphenyl)methyl]-1-methyl-6-N-[[(2R)-pyrrolidin-2-yl]methyl]pyrazolo[3,4-d]pyrimidine-4,6-diamine], it took 9.57 µM to reach half-maximal inhibition (IC50).

In turn, `[2H]C([2H])([2H])Nc1nc(NCC(N)c2ccccc2)nc2c1cnn2C` (stereo not drawn) [Compound 4.37, 6-N-(2-amino-2-phenylethyl)-1-methyl-4-N-(trideuteriomethyl)pyrazolo[3,4-d]pyrimidine-4,6-diamine] yielded an IC50 of 8.01 µM.

As for `Cn1ncc2c(NC(C)(C)CCO)nc(NC[C@H](N)c3ccccc3)nc21` [Compound 4.70, 3-[[6-[[(2R)-2-amino-2-phenyl-ethyl]amino]-1-methyl-pyrazolo[3,4-d]pyrimidin-4-yl]amino]-3-methyl-butan-1-ol], half-maximal inhibition (IC50) was put at 1.3 µM.

In the case of `Cn1ncc2c(NC(C)(C)C)nc(NCC(N)c3ccc(F)cc3)nc21` (stereo not drawn) [Compound 5.30, N6-[2-amino-2-(4-fluorophenyl)ethyl]-N4-tert-butyl-1-methyl-1H-pyrazolo[3,4-d]pyrimidine-4,6-diamine], the half-maximal inhibitory concentration (IC50) worked out at 0.37 µM.

The compound `Cn1ncc2c(NC(C)(C)C)nc(NCC(N)c3ccc(F)c(F)c3)nc21` (stereo not drawn) [Compound 5.31, N6-[2-amino-2-(3,4-difluorophenyl)ethyl]-N4-tert-butyl-1-methyl-pyrazlo[3,4-d]pyrimidine-4,6-diamine] returned an IC50 of 0.35 µM.
